Data from ChEMBL document CHEMBL5104111, “Boron-Containing heterocycles as promising pharmacological agents” (Bioorg Med Chem, 2022).
In brackets after ≈: the same amount, converted by molar mass.

Columns and labels:
[1] = tested on: Plasmodium falciparum; experiment: Antimalarial activity against Plasmodium falciparum 3D7 assessed as parasite growth inhibition; type: functional, organism-based
[2] = tested on: Plasmodium falciparum; experiment: Antimalarial activity against Plasmodium falciparum W2 assessed as parasite growth inhibition; type: functional, organism-based
[3] = Binding affinity to Candida glabrata beta-carbonic anhydrase assessed as inhibition constant preincubated for 15 mins by bromothymol blue staining based assay; parameters: species or system Nakaseomyces glabratus
[4] = Binding affinity to Cryptococcus neoformans beta-carbonic anhydrase assessed as inhibition constant preincubated for 15 mins by bromothymol blue staining based assay
[5] = molecular target: Carbonic anhydrase 1 (Homo sapiens, UniProt P00915); experiment: Binding affinity to human CA-I assessed as inhibition constant preincubated for 15 mins by bromothymol blue staining based assay
[6] = molecular target: Carbonic anhydrase 2 (Homo sapiens, UniProt P00918); experiment: Binding affinity to human CA-II assessed as inhibition constant preincubated for 15 mins by bromothymol blue staining based assay
[7] = Half life in human; type: ADME
[8] = tested on: Hepatitis C virus; experiment: Antiviral activity against HCV GT1a316Y assessed as reduction in viral replication; type: functional, organism-based, Hepacivirus hominis
[9] = Dissociation constant, pKa of the compound; type: physicochemical
[10] = Inhibition of beta-lactamase P99 (unknown origin) using nitrocefin as substrate preincubated for 5 mins followed by substrate addition measured after 1 to 5 mins by colorimetry; parameters: species or system Bacteria
[11] = Inhibition of beta-lactamase CTX-M-15 (unknown origin) using nitrocefin as substrate preincubated for 5 mins followed by substrate addition measured after 1 to 5 mins by colorimetry; parameters: species or system Bacteria
[12] = Inhibition of beta-lactamase OXA-24 (unknown origin) using nitrocefin as substrate preincubated for 5 mins followed by substrate addition measured after 1 to 5 mins in presence of KHCO3 by colorimetry; parameters: species or system Bacteria
[13] = Inhibition of beta-lactamase KPC-2 (unknown origin) using nitrocefin as substrate preincubated for 5 mins followed by substrate addition measured after 1 to 5 mins by colorimetry; parameters: species or system Bacteria
[14] = Inhibition of beta-lactamase TEM-1 (unknown origin) using nitrocefin as substrate preincubated for 5 mins followed by substrate addition measured after 1 to 5 mins by colorimetry; parameters: species or system Bacteria
[15] = tested on: Trypanosoma brucei; experiment: Antitrypanosomal activity against Trypanosoma brucei assessed as parasite growth inhibition; type: functional, organism-based
[16] = tested on: Mycobacterium tuberculosis; experiment: Antibacterial activity against Mycobacterium tuberculosis assessed as bacterial growth inhibition by broth microdilution method; type: functional
[17] = tested on: Trypanosoma brucei; experiment: Antiparasitic activity against Trypanosoma brucei 427 assessed as parasite growth inhibition incubated for 24 hrs by fluorescence based assay; type: functional, organism-based; conditions: Trypanosoma brucei, 427, 24 h
[18] = tested on: Mycobacterium tuberculosis; experiment: Antibacterial activity against Mycobacterium tuberculosis H37Rv assessed as bacterial growth inhibition cultured in GAST medium measured after 14 days by absorbance based assay; type: functional; conditions: 336 h, time 14 day
[19] = tested on: Mycobacterium tuberculosis; experiment: Antibacterial activity against Mycobacterium tuberculosis H37Rv assessed as bacterial growth inhibition cultured in 7H9 medium measured after 14 days by absorbance based assay; type: functional; conditions: 336 h, time 14 day
[20] = tested on: Candida albicans; experiment: Antifungal activity against Candida albicans assessed as fungal growth inhibition incubated for 48 hrs by agar diffusion method; type: functional
[21] = tested on: Aspergillus niger; experiment: Antifungal activity against Aspergillus niger assessed as fungal growth inhibition incubated for 48 hrs by agar diffusion method; type: functional
[22] = tested on: Penicillium ochrochloron; experiment: Antifungal activity against Penicillium ochrochloron assessed as fungal growth inhibition incubated for 72 hrs by agar diffusion method; type: functional
[23] = tested on: Escherichia coli; experiment: Antibacterial activity against Escherichia coli expressing tolC assessed as bacterial growth inhibition by broth microdilution method; type: functional
[24] = tested on: Staphylococcus epidermidis; experiment: Antibacterial activity against Staphylococcus epidermidis assessed as bacterial growth inhibition by broth microdilution method; type: functional
[25] = tested on: Onchocerca volvulus; experiment: Antiparasitic activity against third stage larvae of Onchocerca volvulus assessed as parasite growth inhibition incubated for 6 days by inverted microscopy; type: functional, organism-based; conditions: 144 h
[26] = tested on: Mycobacterium tuberculosis; experiment: Antibacterial activity against Mycobacterium tuberculosis H37Rv ATCC 25618 assessed as bacterial growth inhibition cultured in liquid media for 5 days by absorbance based assay; type: functional; conditions: H37Rv ATCC 25618, 120 h, time 5 day
[27] = tested on: HepG2; experiment: Cytotoxicity against human HepG2 cells assessed as cell growth inhibition incubated for 2 days by Cell Titer Glo assay; type: functional, cell-based; conditions: HepG2, 48 h
[28] = tested on: Mycobacterium tuberculosis; experiment: Antibacterial activity against Mycobacterium tuberculosis H37Rv ATCC 25618 assessed as bacterial growth inhibition cultured in solid media incubated for 3 to 4 weeks; type: functional; conditions: time 3-4 weeks
[29] = tested on: Mycobacterium tuberculosis; experiment: Antibacterial activity against Mycobacterium tuberculosis H37Rv ATCC 25618 infected in human THP-1 cells assessed as bacterial growth inhibition at MOI of 1 incubated for 3 days by Cell Titer Glo assay; type: functional, organism-based; conditions: H37Rv ATCC 25618, THP-1, 72 h
[30] = Inhibition of Escherichia coli LeuRS using Escherichia coli tRNA as substrate incubated for 20 mins in presence of 14C-leucine/ATP
[31] = tested on: Escherichia coli; experiment: Antibacterial activity against Escherichia coli ATCC 25922 assessed as bacterial growth inhibition; type: functional
[32] = Bioavailability in monkey; type: ADME, organism-based, Macaca mulatta; conditions: rhesus monkey, in vivo
[33] = tested on: Plasmodium falciparum; experiment: Antimalarial activity against multidrug-resistant Plasmodium falciparum W2 assessed as parasite growth inhibition incubated for 48 hrs by FACS analysis; type: functional, organism-based; conditions: W2, 48 h
[34] = molecular target: T1, 3',5'-cyclic-AMP phosphodiesterase 4B (Homo sapiens, UniProt Q07343); experiment: Displacement of […] from full-length recombinant human PDE4B1 by fluorescence polarisation assay
[35] = molecular target: 3',5'-cyclic-AMP phosphodiesterase 4C (Homo sapiens, UniProt Q08493); experiment: Displacement of […] from full-length recombinant human PDE4C1 by fluorescence polarisation assay
[36] = molecular target: T1, 3',5'-cyclic-AMP phosphodiesterase 4B; experiment: Displacement of […] from full-length recombinant human PDE4B2 by fluorescence polarisation assay
[37] = molecular target: T1, 3',5'-cyclic-AMP phosphodiesterase 4B; experiment: Displacement of […] from full-length recombinant human PDE4B2 catalytic domain by fluorescence polarisation assay
[38] = molecular target: 3',5'-cyclic-AMP phosphodiesterase 4D (Homo sapiens, UniProt Q08499); experiment: Displacement of […] from full-length recombinant human PDE4D7 by fluorescence polarisation assay
[39] = Tmax in Sprague-Dawley rat at 1 mg/kg, po or 1 mg/kg, iv measured upto 7 hrs by LC/MS analysis; type: ADME, organism-based; conditions: in vivo
[40] = Cmax in Sprague-Dawley rat at 1 mg/kg, po or 1 mg/kg, iv measured upto 7 hrs by LC/MS analysis; type: ADME, organism-based; parameters: time < 7 hrs, dose 1 mg/kg, route po; conditions: in vivo
[41] = Half life in Sprague-Dawley rat at 1 mg/kg, po or 1 mg/kg, iv measured upto 7 hrs by LC/MS analysis; type: ADME, organism-based; conditions: in vivo
[42] = AUC in Sprague-Dawley rat at 1 mg/kg, po measured upto 7 hrs by LC/MS analysis; type: ADME, organism-based; parameters: dose 1 mg/kg, time < 7 hrs, route po; conditions: in vivo
[43] = molecular target: Cyclin-dependent kinase 2 (Homo sapiens, UniProt P24941); experiment: Inhibition of CDK2 (unknown origin) using peptide substrate in presence of ATP
[44] = Bioavailability in Sprague-Dawley rat […] measured upto 7 hrs by LC/MS analysis; type: ADME, organism-based; conditions: in vivo
[45] = tested on: Aspergillus niger; experiment: Antifungal activity against Aspergillus niger assessed as fungal growth inhibition; type: functional

T1 sequence (Q07343 whole entry): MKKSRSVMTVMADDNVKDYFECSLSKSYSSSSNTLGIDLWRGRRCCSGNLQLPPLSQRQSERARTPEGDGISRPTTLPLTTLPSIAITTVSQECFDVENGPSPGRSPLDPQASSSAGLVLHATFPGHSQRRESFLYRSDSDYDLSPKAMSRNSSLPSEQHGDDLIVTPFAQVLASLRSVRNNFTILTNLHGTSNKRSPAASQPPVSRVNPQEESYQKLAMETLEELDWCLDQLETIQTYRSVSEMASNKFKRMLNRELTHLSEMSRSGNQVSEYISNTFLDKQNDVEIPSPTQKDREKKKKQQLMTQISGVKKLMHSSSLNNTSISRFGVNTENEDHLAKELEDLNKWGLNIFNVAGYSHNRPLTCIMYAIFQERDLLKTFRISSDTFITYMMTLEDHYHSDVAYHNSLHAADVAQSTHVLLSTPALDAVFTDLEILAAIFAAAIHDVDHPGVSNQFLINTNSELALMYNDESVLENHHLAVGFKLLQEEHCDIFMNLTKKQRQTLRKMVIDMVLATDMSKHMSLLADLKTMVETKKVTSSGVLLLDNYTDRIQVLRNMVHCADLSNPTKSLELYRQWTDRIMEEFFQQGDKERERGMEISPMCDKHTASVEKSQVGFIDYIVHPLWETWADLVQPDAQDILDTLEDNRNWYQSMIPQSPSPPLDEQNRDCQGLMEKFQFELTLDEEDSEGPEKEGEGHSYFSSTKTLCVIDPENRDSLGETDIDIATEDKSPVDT
Sequence of 3',5'-cyclic-AMP phosphodiesterase 4D (Q08499 whole entry): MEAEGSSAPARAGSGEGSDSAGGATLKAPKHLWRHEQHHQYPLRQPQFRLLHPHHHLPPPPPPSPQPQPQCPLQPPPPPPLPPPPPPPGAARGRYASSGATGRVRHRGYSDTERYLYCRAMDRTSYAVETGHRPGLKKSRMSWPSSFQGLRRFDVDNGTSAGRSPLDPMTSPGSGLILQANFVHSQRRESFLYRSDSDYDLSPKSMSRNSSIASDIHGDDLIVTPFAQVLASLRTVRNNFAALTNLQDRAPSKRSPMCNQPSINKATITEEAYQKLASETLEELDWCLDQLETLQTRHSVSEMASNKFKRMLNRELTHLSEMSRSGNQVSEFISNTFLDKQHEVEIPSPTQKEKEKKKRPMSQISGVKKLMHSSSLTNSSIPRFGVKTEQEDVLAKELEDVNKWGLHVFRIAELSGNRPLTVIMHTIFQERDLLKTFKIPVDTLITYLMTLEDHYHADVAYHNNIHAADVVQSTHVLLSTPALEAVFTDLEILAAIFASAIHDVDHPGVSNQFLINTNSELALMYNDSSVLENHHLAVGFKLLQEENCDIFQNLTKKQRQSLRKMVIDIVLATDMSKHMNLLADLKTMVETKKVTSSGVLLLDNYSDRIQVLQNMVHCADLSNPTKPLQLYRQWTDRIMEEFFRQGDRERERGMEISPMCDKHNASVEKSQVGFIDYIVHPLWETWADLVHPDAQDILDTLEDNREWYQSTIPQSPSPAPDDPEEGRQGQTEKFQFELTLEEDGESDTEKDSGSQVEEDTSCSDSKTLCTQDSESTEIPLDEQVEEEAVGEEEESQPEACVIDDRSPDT
Sequence of 3',5'-cyclic-AMP phosphodiesterase 4C (Q08493 whole entry): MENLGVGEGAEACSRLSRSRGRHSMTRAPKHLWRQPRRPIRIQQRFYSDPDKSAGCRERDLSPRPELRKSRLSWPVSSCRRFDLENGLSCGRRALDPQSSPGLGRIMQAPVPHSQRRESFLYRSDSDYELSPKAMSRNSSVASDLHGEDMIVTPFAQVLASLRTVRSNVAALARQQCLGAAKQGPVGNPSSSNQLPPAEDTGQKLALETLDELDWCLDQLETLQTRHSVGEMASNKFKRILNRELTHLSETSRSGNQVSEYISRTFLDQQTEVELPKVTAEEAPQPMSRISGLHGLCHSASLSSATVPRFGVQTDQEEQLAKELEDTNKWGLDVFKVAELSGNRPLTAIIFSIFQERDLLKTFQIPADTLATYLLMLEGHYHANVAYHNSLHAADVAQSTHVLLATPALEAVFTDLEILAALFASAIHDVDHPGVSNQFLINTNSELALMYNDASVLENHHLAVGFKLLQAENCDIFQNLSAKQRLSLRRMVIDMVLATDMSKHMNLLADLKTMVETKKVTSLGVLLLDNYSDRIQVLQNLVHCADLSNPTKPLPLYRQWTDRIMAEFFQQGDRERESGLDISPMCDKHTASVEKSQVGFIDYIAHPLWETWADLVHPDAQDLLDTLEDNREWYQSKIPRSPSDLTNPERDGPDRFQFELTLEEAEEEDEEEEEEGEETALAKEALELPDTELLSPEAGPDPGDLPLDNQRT
Sequence of Carbonic anhydrase 1 (P00915 whole entry): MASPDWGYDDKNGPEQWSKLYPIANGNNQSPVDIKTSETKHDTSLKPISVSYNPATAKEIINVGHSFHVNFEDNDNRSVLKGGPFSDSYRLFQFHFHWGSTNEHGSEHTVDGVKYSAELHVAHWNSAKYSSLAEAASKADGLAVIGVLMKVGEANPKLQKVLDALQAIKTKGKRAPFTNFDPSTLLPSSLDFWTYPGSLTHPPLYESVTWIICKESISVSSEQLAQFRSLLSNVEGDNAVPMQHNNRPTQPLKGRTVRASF

Cc1c(Oc2cnc(C(=O)N3CC(C)(O)C3)cn2)ccc2c1B(O)OC2
IC50 [1]: 43000 nM
IC50 [2]: 33000 nM

O=[N+]([O-])c1ccc(NC(=S)Nc2ccc3c(c2)B(O)OC3)cc1
Ki [3]: 89 nM
Ki [4]: 88 nM
Ki [5]: 6350 nM
Ki [6]: 504 nM

CNC(=O)c1c(-c2ccc(F)cc2)oc2cc(N(c3cc(Cl)c4c(c3)COB4O)S(C)(=O)=O)c(C3CC3)cc12
half-life [7]: 60 h
EC50 [8]: 32 nM
pKa [9]: 5.4

Cc1c(Oc2nc(N)ns2)cc2c(c1C)[C@@H](CC(=O)O)OB2O
IC50 [10]: 12 nM
IC50 [11]: < 5 nM
IC50 [12]: 88 nM
IC50 [13]: 26 nM
IC50 [14]: < 5 nM

O=C(/C=C/c1ccc2c(c1)OCO2)Nc1ccc2c(c1)B(O)OC2
IC50 [15]: 100 nM
MIC99 [16]: 40.7 µM (≈ 13.2 µg/mL)
IC50 [17]: 86 nM

Nc1cc2c(cc1Br)COB2O
MIC99 [18]: 1.9 µM (≈ 0.433 µg/mL)
MIC99 [19]: 7.8 µM (≈ 1.78 µg/mL)

OB1OC(N2CCN(C3OB(O)c4cccc(F)c43)CC2)c2c(F)cccc21 (stereo not given)
inhibition zone (IZ) [20]: 35 mm
inhibition zone (IZ) [21]: 41 mm
inhibition zone (IZ) [22]: 41 mm

CC[C@H]1OC(=O)[C@H](C)[C@@H](O[C@H]2C[C@@](C)(OC)[C@@H](O)[C@H](C)O2)[C@H](C)[C@@H](O[C@@H]2O[C@H](C)C[C@H](N(C)C)[C@H]2O)[C@](C)(OC)C[C@@H](C)/C(=N\OCC(=O)NC[C@H]2OB(O)c3ccccc32)[C@H](C)[C@@H](O)[C@]1(C)O
MIC [23]: 8 µg/mL (≈ 8.28 µM)
MIC [24]: 0.5 µg/mL (≈ 0.518 µM)

COC(=O)Nc1nc2cc(C(=O)NCc3ccc4c(c3)B(O)OC4(C)C)ccc2[nH]1
IC50 [25]: 300 nM

Cc1c(OCc2ccccc2)ccc2c1B(O)OC2
MIC [26]: 2 µM (≈ 0.508 µg/mL)
IC50 [27]: > 100000 nM
MIC [28]: 0.8 µM (≈ 0.203 µg/mL)
IC50 [29]: 3600 nM

Cl.NC[C@H]1OB(O)c2c1ccc1c2OCO1
IC50 [30]: 380 nM
MIC [31]: 1 µg/mL
bioavailability [32]: 100%

CCOc1ccc(Br)c2c1B(O)O[C@@H]2CC
IC50 [33]: 490 nM

CC(C)OCCOc1ncc(Oc2ccc3c(c2)B(O)OC3)cc1C#N
IC50 [34]: 2.1 nM
IC50 [35]: 2.1 nM
IC50 [36]: 2.1 nM
IC50 [37]: 2.1 nM
IC50 [38]: 2.1 nM

O=C(Cc1ccc(B2C=CC=CN2)cc1)Nc1cc(C2CC2)[nH]n1
Tmax [39]: 1.5 h
Cmax [40]: 746 nM
half-life [41]: 11.6 h
AUC at 7 h [42]: 0.613 µM·h
IC50 [43]: 87 nM
bioavailability [44]: 29.3%

OB1OC(N2CCN(c3ccc(F)cc3)CC2)c2ccccc21 (stereo not given)
MIC [45]: 62.5 µg/mL (≈ 200 µM)
